The record followed here is patent US8865759B2, “Use of dithiine-tetracarboximides for controlling phytopathogenic fungi” (priority 2008, dated 2014).

The nature of this series: logP determination by HPLC on reversed-phase column (C 18), EEC Directive 79/831 Annex V.A8. The class given is physicochemical. The note with it: reversed-phase C 18, 43° C., acidic range pH 2.7, 0.1% aqueous formic acid/acetonitrile.

Turning to `COCCn1c(=O)c2sc3c(=O)n(CCOC)c(=O)c3sc2c1=O` [Compound 12, 2,6-Bis(2-methoxyethyl)-1H,5H-[1,4]dithiino[2,3-c:5,6-c]dipyrrole-1,3,5,7(2H,6H)-tetrone], the “log P” value was “log P = 2.55”.

For the molecule `CC(C(=O)O)n1c(=O)c2sc3c(=O)n(C(C)C(=O)O)c(=O)c3sc2c1=O` (centres unmarked) [Compound 24, 2,2′-(1,3,5,7-Tetraoxo-1,3,5,7-tetrahydro-2H,6H-[1,4]dithiino[2,3-c:5,6-c]dipyrrole-2,6-diyl)dipropanoic acid], the “log P” value is listed as “log P = 1.76”.
